≈ marks a conversion by molar mass, not a printed value. Calls of active or inactive are those of the source. The calls are words filed in the database; no cut-off is given here.
Legend:
Assay type in all cases: functional
[1] = tested on: Micrococcus luteus; assay: Antibacterial activity against Micrococcus luteus MTCC 1538 assessed as growth inhibition at 1250 ug/mL after 48 hr by agar diffusion method; conditions: MTCC 1538, 48 h, read-out: DIZ
[2] = tested on: Penicillium chrysogenum; assay: Antifungal activity against Penicillium chrysogenum MTCC 161 assessed as growth inhibition at 750 ug/mL after 48 hr by agar diffusion method; conditions: MTCC 161, 48 h, read-out: DIZ
[3] = tested on: Aspergillus niger; assay: Antifungal activity against Aspergillus niger MTCC 2546 assessed as growth inhibition at 1000 ug/mL after 48 hr by agar diffusion method; conditions: MTCC 2546, 48 h, read-out: DIZ
[4] = tested on: Bacillus subtilis; assay: Antibacterial activity against Bacillus subtilis MTCC 441 assessed as growth inhibition at 750 ug/mL after 48 hr by agar diffusion method; conditions: MTCC 441, 48 h, read-out: DIZ
[5] = tested on: Staphylococcus aureus; assay: Antibacterial activity against Staphylococcus aureus MTCC 1430 assessed as growth inhibition at 250 ug/mL after 48 hr by agar diffusion method; conditions: for zone of inhibition at 250 µg/mL: MTCC 1430, 48 h, read-out: DIZ
[6] = tested on: Bacillus subtilis; assay: Antibacterial activity against Bacillus subtilis MTCC 441 assessed as growth inhibition at 100 ug/mL after 48 hr by agar diffusion method; conditions: for zone of inhibition at 100 µg/mL: MTCC 441, 48 h, read-out: DIZ
[7] = tested on: Aspergillus niger; assay: Antifungal activity against Aspergillus niger MTCC 2546 assessed as growth inhibition at 500 ug/mL after 48 hr by agar diffusion method; conditions: MTCC 2546, 48 h, read-out: DIZ
[8] = tested on: Pseudomonas aeruginosa; assay: Antibacterial activity against Pseudomonas aeruginosa MTCC 424 assessed as growth inhibition at 100 ug/mL after 48 hr by agar diffusion method; conditions: MTCC 424, 48 h, read-out: DIZ
[9] = tested on: Staphylococcus aureus; assay: Antibacterial activity against Staphylococcus aureus MTCC 1430 assessed as growth inhibition after 24 hr by tube dilution method; conditions: MTCC 1430, 24 h
[10] = tested on: Pseudomonas aeruginosa; assay: Antibacterial activity against Pseudomonas aeruginosa MTCC 424 assessed as growth inhibition after 24 hr by tube dilution method; conditions: MTCC 424, 24 h
[11] = tested on: Penicillium chrysogenum; assay: Antifungal activity against Penicillium chrysogenum MTCC 161 assessed as growth inhibition at 250 ug/mL after 48 hr by agar diffusion method; conditions: for zone of inhibition at 250 µg/mL: MTCC 161, 48 h, read-out: DIZ
[12] = tested on: Staphylococcus aureus; assay: Antibacterial activity against Staphylococcus aureus MTCC 1430 assessed as growth inhibition at 1000 ug/mL after 48 hr by agar diffusion method; conditions: MTCC 1430, 48 h, read-out: DIZ
[13] = tested on: Bacillus subtilis; assay: Antibacterial activity against Bacillus subtilis MTCC 441 assessed as growth inhibition after 24 hr by tube dilution method; conditions: MTCC 441, 24 h
[14] = tested on: Aspergillus niger; assay: Antifungal activity against Aspergillus niger MTCC 2546 assessed as growth inhibition at 750 ug/mL after 48 hr by agar diffusion method; conditions: MTCC 2546, 48 h, read-out: DIZ
[15] = tested on: Bacillus subtilis; assay: Antibacterial activity against Bacillus subtilis MTCC 441 assessed as growth inhibition at 500 ug/mL after 48 hr by agar diffusion method; conditions: MTCC 441, 48 h, read-out: DIZ
[16] = tested on: Aspergillus niger; assay: Antifungal activity against Aspergillus niger MTCC 2546 assessed as growth inhibition after 24 hr by tube dilution method; conditions: MTCC 2546, 24 h
[17] = tested on: Bacillus pumilus; assay: Antibacterial activity against Bacillus pumilus MTCC 1456 assessed as growth inhibition after 24 hr by tube dilution method; conditions: MTCC 1456, 24 h
[18] = tested on: Penicillium chrysogenum; assay: Antifungal activity against Penicillium chrysogenum MTCC 161 assessed as growth inhibition at 500 ug/mL after 48 hr by agar diffusion method; conditions: MTCC 161, 48 h, read-out: DIZ
[19] = tested on: Micrococcus luteus; assay: Antibacterial activity against Micrococcus luteus MTCC 1538 assessed as growth inhibition at 500 ug/mL after 48 hr by agar diffusion method; conditions: MTCC 1538, 48 h, read-out: DIZ
[20] = tested on: Bacillus subtilis; assay: Antibacterial activity against Bacillus subtilis MTCC 441 assessed as growth inhibition at 1000 ug/mL after 48 hr by agar diffusion method; conditions: MTCC 441, 48 h, read-out: DIZ
[21] = tested on: Aspergillus niger; assay: Antifungal activity against Aspergillus niger MTCC 2546 assessed as growth inhibition at 250 ug/mL after 48 hr by agar diffusion method; conditions: for zone of inhibition at 250 µg/mL: MTCC 2546, 48 h, read-out: DIZ
[22] = tested on: Penicillium chrysogenum; assay: Antifungal activity against Penicillium chrysogenum MTCC 161 assessed as growth inhibition after 24 hr by tube dilution method; conditions: MTCC 161, 24 h
[23] = tested on: Escherichia coli; assay: Antibacterial activity against Escherichia coli MTCC 1573 assessed as growth inhibition at 500 ug/mL after 48 hr by agar diffusion method; conditions: MTCC 1573, 48 h, read-out: DIZ
[24] = tested on: Pseudomonas aeruginosa; assay: Antibacterial activity against Pseudomonas aeruginosa MTCC 424 assessed as growth inhibition at 500 ug/mL after 48 hr by agar diffusion method; conditions: MTCC 424, 48 h, read-out: DIZ

Row | Compound | MIC [9] | MIC [10] | MIC [13] | MIC [16] | MIC [17] | MIC [22] | zone of inhibition at 1250 µg/mL [1] | zone of inhibition at 750 µg/mL [2] | zone of inhibition at 1000 µg/mL [3] | zone of inhibition at 750 µg/mL [4] | zone of inhibition at 500 µg/mL [7] | zone of inhibition at 100 µg/mL [8] | zone of inhibition at 1000 µg/mL [12] | zone of inhibition at 750 µg/mL [14] | zone of inhibition at 500 µg/mL [15] | zone of inhibition at 500 µg/mL [18] | zone of inhibition at 500 µg/mL [19] | zone of inhibition at 1000 µg/mL [20] | zone of inhibition at 500 µg/mL [23] | zone of inhibition at 500 µg/mL [24] | also measured
1 | CC1SCC(=O)N1c1nnc2c3cc(Cl)ccc3nc-2s1 (centres undefined) | 150 µg/mL (≈ 445 µM) | 50 µg/mL (≈ 148 µM) | 50 µg/mL (≈ 148 µM) | 250 µg/mL (≈ 742 µM) | 40 µg/mL (≈ 119 µM) | 250 µg/mL (≈ 742 µM) | 19 mm | 14 mm | 15 mm | 17 mm | 10 mm | 7 mm | 15 mm | 13 mm | 15 mm | 12 mm | 10 mm | 19 mm | 14 mm | 14 mm | zone of inhibition at 250 µg/mL [5]: 8 mm; zone of inhibition at 100 µg/mL [6]: 8 mm; growth inhibition (GI) [11]: inactive; growth inhibition (GI) [21]: inactive
2 | O=C1CSC(c2cccc3ccccc23)N1c1nnc2c3ccccc3nc-2s1 (centres undefined) | 200 µg/mL (≈ 482 µM) | 40 µg/mL (≈ 96.5 µM) | 40 µg/mL (≈ 96.5 µM) | 250 µg/mL (≈ 603 µM) | 20 µg/mL (≈ 48.2 µM) | 200 µg/mL (≈ 482 µM) | 16 mm | 10 mm | 15 mm | 15 mm | 8 mm | 7 mm | 14 mm | 10 mm | 13 mm | 9 mm | 8 mm | 17 mm | 12 mm | 13 mm | zone of inhibition at 250 µg/mL [5]: 8 mm; zone of inhibition at 100 µg/mL [6]: 8 mm; zone of inhibition at 250 µg/mL [11]: 8 mm; growth inhibition (GI) [21]: inactive
3 | O=C1CSC(c2ccccn2)N1c1nnc2c3ccccc3nc-2s1 (centres undefined) | 200 µg/mL (≈ 547 µM) | 30 µg/mL (≈ 82.1 µM) | 40 µg/mL (≈ 109 µM) | 150 µg/mL (≈ 410 µM) | 50 µg/mL (≈ 137 µM) | 150 µg/mL (≈ 410 µM) | 17 mm | 13 mm | 15 mm | 13 mm | 11 mm | 7 mm | 12 mm | 14 mm | 12 mm | 12 mm | 11 mm | 15 mm | 13 mm | 13 mm | zone of inhibition at 250 µg/mL [5]: 8 mm; zone of inhibition at 100 µg/mL [6]: 8 mm; zone of inhibition at 250 µg/mL [11]: 9 mm; zone of inhibition at 250 µg/mL [21]: 8 mm

The remaining compounds from weak to strong by MIC [9], led by results:

Row | MIC [9] | MIC [10] | MIC [13] | MIC [16] | MIC [17] | MIC [22] | Compound | zone of inhibition at 1250 µg/mL [1] | zone of inhibition at 750 µg/mL [2] | zone of inhibition at 1000 µg/mL [3] | zone of inhibition at 750 µg/mL [4] | zone of inhibition at 500 µg/mL [7] | zone of inhibition at 100 µg/mL [8] | zone of inhibition at 1000 µg/mL [12] | zone of inhibition at 750 µg/mL [14] | zone of inhibition at 500 µg/mL [15] | zone of inhibition at 500 µg/mL [18] | zone of inhibition at 500 µg/mL [19] | zone of inhibition at 1000 µg/mL [20] | zone of inhibition at 500 µg/mL [23] | zone of inhibition at 500 µg/mL [24] | also measured
4 | 250 µg/mL (≈ 827 µM) | 30 µg/mL (≈ 99.2 µM) | 30 µg/mL (≈ 99.2 µM) | 250 µg/mL (≈ 827 µM) | 30 µg/mL (≈ 99.2 µM) | 250 µg/mL (≈ 827 µM) | CC1SCC(=O)N1c1nnc2c3ccccc3nc-2s1 (centres undefined) | 19 mm | 12 mm | 14 mm | 18 mm | 8 mm | 8 mm | 15 mm | 11 mm | 15 mm | 10 mm | 12 mm | 20 mm | 13 mm | 12 mm | growth inhibition (GI) [5]: inactive; zone of inhibition at 100 µg/mL [6]: 10 mm; growth inhibition (GI) [11]: inactive; growth inhibition (GI) [21]: inactive
5 | 250 µg/mL (≈ 625 µM) | 30 µg/mL (≈ 75 µM) | 150 µg/mL (≈ 375 µM) | 200 µg/mL (≈ 500 µM) | 50 µg/mL (≈ 125 µM) | 200 µg/mL (≈ 500 µM) | O=C1CSC(c2ccccn2)N1c1nnc2c3cc(Cl)ccc3nc-2s1 (centres undefined) | 19 mm | 15 mm | 18 mm | 14 mm | 12 mm | 7 mm | 13 mm | 15 mm | 9 mm | 12 mm | 8 mm | 19 mm | 12 mm | 13 mm | zone of inhibition at 250 µg/mL [5]: 7 mm; growth inhibition (GI) [6]: inactive; zone of inhibition at 250 µg/mL [11]: 9 mm; zone of inhibition at 250 µg/mL [21]: 9 mm
6 | 150 µg/mL (≈ 334 µM) | 40 µg/mL (≈ 89.1 µM) | 150 µg/mL (≈ 334 µM) | 150 µg/mL (≈ 334 µM) | 40 µg/mL (≈ 89.1 µM) | 150 µg/mL (≈ 334 µM) | O=C1CSC(c2cccc3ccccc23)N1c1nnc2c3cc(Cl)ccc3nc-2s1 (centres undefined) | 20 mm | 15 mm | 15 mm | 15 mm | 11 mm | 8 mm | 10 mm | 13 mm | 11 mm | 11 mm | 8 mm | 18 mm | 13 mm | 12 mm | growth inhibition (GI) [5]: inactive; growth inhibition (GI) [6]: inactive; zone of inhibition at 250 µg/mL [11]: 8 mm; zone of inhibition at 250 µg/mL [21]: 8 mm

Source: ChEMBL document CHEMBL3046001, “4-Thiazolidinone and 1-thia-3,4,9-triaza fluorene conjugates: synthesis, characterization and antimicrobial screening” (2013)
